{"source": "patent US9708282B1", "about": "“Anti-inflammatory and antiepileptic neuroprotective statin compounds” (NEURON BIOPHARMA, S.A., priority 2013, dated 2017)", "key": {"[1]": {"tested_on": "neurons of the hippocampus", "conditions": "3.125 mg/kg i.p. 24 h and 0.5 h before kainate 23 mg/kg, then 1 dose/day for three days"}, "[2]": {"assay": "Concentrations in the brain of mice after i.p. administration (UPLC-MS)", "type": "in vivo", "conditions": "male FVB mice, lactone forms; for AUC in the brain: 50 mg/kg i.p., 1, 2, 4 and 6 h; for Brain AUC and Cmax compared with simvastatin: 50 mg/kg i.p.", "experimental": "(§1) Male FVB mice 4 months of age were treated i.p. with 50 mg/kg of the compounds (n=4-8 mice/group/time). The animals were sacrificed 1, 2, 4 and 6 h after treatment by means of injecting Eutanax, the blood and brain being extracted after perfusion with PBS. The plasma obtained from the blood and the entire brain were frozen at −20° C. until analysis. The compounds were extracted from the tissues with ethyl acetate and resuspended in ethanol for subsequent UPLC-MS quantification. Fluvastatin was used as an internal standard."}, "β-secretase (BACE) [3]": {"tested_on": "β-secretase (BACE)", "assay": "β-secretase (BACE) enzymatic activity in the brain of zebra fish after i.p. administration", "type": "in vivo", "conditions": "100 mg/kg i.p., 24 h after administration, zebra fish 24 months of age", "experimental": "The compounds object of study were prepared at different concentrations according to the weight of the animals in 0.5% methylcellulose in physiological saline, homogeneous suspensions thereof being obtained. Female zebra fish 24 months of age were treated i.p. with 100 mg/kg of the compounds or with equivalent volumes of the vehicle (n=8 fish/group). After 24 h, the animals were sacrificed and the brain was extracted and frozen at −20° C. After freezing the brains for 24 h, they were homogenized in 500 μL of 0.1 M sodium acetate at pH 4. The samples were incubated for 10 minutes under cold conditions to favor lysis and to obtain the extract after centrifuging at 10,000 g for 10 minutes. The enzymatic reaction was then carried out in the same way as in the case mice."}, "transgenic ApoB100 mice": {"tested_on": "transgenic ApoB100 mice", "assay": "Hypocholesterolemic effect in endogenous (familial) hypercholesterolemia model", "type": "in vivo", "conditions": "50 mg/kg i.p., 12 h after treatment, male ApoB100 mice", "experimental": "The mice were inoculated i.p. with 50 mg/kg of the compounds. Control mice were inoculated with equivalent volumes of the vehicle. Blood was drawn in fasting conditions before treating the animals and 12 h after treatments. Plasma, which was subsequently frozen, was obtained in both cases. The plasma total, LDL and HDL cholesterol concentration was quantified by enzymatic and spectrophotometric methods. After determining cholesterol levels and cholesterol fraction levels (baseline levels and 12 h after treatments), the change thereof with respect to the baseline level was calculated, and the results were depicted as a percentage with respect to the control group."}, "reactive astroglia": {"tested_on": "reactive astroglia", "assay": "Protection against brain inflammation (astrogliosis, GFAP immunohistochemistry) induced by kainate", "type": "in vivo, mice", "conditions": "3.125 mg/kg i.p. 24 h and 0.5 h before kainate 23 mg/kg, then 1 dose/day for three days; surviving animals", "experimental": "Based on the coronal sections of the brain obtained during the experiment described above, astrogliosis was analyzed by means of bright field immunohistochemistry for the glial fibrillary acidic protein (GFAP) in surviving animals.\nThe degree to which astrogliosis has spread (or score) was determined on a scale of intensity from 0 to 3, where zero indicates the absence of reactive astroglia and three indicates maximum reactive astroglia, for each of the groups."}, "β-secretase (BACE) [4]": {"molecular_target": "T1, β-secretase (BACE) (Mus musculus, UniProt P56818)", "T1 construct": "contacting a BACE-specific, fluorogenic substrate with a brain homogenate in which the enzyme is present; from tissue; host or cells: brain (without cerebellum) of FVB mice", "T1 sequence (P56818 46-501)": "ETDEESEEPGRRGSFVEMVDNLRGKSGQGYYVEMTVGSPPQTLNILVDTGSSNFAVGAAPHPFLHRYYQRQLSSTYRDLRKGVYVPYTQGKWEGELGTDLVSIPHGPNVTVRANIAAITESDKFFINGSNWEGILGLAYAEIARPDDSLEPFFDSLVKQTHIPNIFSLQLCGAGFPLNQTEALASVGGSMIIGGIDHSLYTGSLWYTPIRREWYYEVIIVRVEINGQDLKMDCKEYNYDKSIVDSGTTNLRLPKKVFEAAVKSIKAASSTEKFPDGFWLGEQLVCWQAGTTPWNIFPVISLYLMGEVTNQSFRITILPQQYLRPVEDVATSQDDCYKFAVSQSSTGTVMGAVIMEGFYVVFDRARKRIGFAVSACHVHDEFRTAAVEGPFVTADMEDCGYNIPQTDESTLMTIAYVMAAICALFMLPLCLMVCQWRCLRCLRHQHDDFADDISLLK", "assay": "β-secretase (BACE) enzymatic activity in the brain of mice after i.p. administration", "type": "in vivo", "conditions": "50 mg/kg i.p., 24 h after administration, FVB mice, brain homogenates", "experimental": "During the reaction, contacting a BACE-specific, fluorogenic substrate with a brain homogenate in which the enzyme is present allows quantifying the enzyme activity by means of measuring the fluorescence emitted.\nFemale FVB mice 4 months of age were treated i.p. with 50 mg/kg of the compounds or with equivalent volumes of the vehicle (n=6 mice/group). After 24 h, the animals were sacrificed and the brain was extracted and frozen at −20° C., first disposing of the cerebellum. After freezing the brains for 24 h, they were homogenized by making a 1/100 dilution in 0.1 M sodium acetate at pH 4. The samples were incubated for 10 minutes under cold conditions to favor lysis and to obtain the extract after centrifuging at 10,000 g for 10 minutes. The enzymatic reaction was then carried out. […] 50 μL of a 20 μM fluorogenic BACE substrate (Mca-[…]) were added to the samples and controls, the final concentration in the well being 10 μM and the total reaction volume being 100 μL. […] The results obtained in arbitrary units were normalized by the amount of protein that was determined by the bicinchoninic acid (BCA) method."}, "[5]": {"molecular_target": "T2, 3-hydroxy-3-methylglutaryl coenzyme A reductase (HMGCR) (Homo sapiens, UniProt P04035)", "T2 construct": "representing oxidation of NADPH by the catalytic subunit of HMGCR in the presence of the substrate", "T2 sequence (P04035 426-888 limits assumed)": "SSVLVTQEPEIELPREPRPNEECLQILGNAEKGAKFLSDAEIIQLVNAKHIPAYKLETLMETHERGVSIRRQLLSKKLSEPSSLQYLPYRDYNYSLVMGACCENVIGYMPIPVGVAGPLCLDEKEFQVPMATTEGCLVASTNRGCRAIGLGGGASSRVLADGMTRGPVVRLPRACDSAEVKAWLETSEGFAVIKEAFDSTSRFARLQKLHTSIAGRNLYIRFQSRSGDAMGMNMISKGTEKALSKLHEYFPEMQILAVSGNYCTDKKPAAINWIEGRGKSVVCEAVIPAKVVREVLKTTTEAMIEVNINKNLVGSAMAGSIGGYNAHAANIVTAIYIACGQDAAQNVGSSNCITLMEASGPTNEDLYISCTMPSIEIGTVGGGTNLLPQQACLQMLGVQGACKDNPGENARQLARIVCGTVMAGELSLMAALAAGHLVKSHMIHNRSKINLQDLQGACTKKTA", "assay": "Inhibition of HMGCR enzymatic activity in vitro (NADPH absorbance at 340 nm)", "type": "biochemical", "conditions": "hydroxy acid forms", "excerpt": "The degree of inhibition of the HMGCR enzyme in vitro by NST0076 and NST0078 in the hydroxy acid form thereof was studied.\nDuring the reaction, HMGCR uses NADPH (Nicotinamide Adenine Dinucleotide Phosphate) as reducing agent and 3-hydroxy-3-methylglutaryl coenzyme A (HMG-CoA) as substrate. Mevalonic acid is obtained as a reaction product, and it serves as substrate for the subsequent reaction to continue with cholesterol synthesis. The enzymatic reaction object of study is schematized as follows: HMG-CoA+2.NADPH+2.H^+→Mevalonic acid+2.NADP^++CoASH\nThis in vitro assay is based on the spectrophotometric measurement of the decrease in absorbance at 340 nm, representing oxidation of NADPH by the catalytic subunit of HMGCR in the presence of the substrate. […] Briefly, the assay is performed in a 96-well plate with reaction buffer 50 mM KH2PO4, 1 M KCl, 2 mg/ml bovine serum albumin (BSA) and 5 mM DTT, at pH=7.3, and the concentrations of the reagents in the reaction mixture are 0.2 mM HMG-CoA, 3 μU/point HMGCR and 0.2 mM NADPH. The plate is read in a spectrophotometer at 340 nm and 37° C."}, "[6]": {"assay": "Concentrations in plasma of mice after i.p. administration (UPLC-MS)", "type": "in vivo", "conditions": "male FVB mice, lactone forms; for Plasma levels compared with simvastatin: 50 mg/kg i.p.; for AUC: mouse, plasma, ip, 50 mg/kg i.p., 1, 2, 4 and 6 h", "experimental": "as §1"}, "FVB/NRj mice": {"tested_on": "FVB/NRj mice", "assay": "Protection against epilepsy caused by kainate (Racine scale)", "conditions": "3.125 mg/kg i.p. 24 h and 0.5 h before kainate 23 mg/kg"}}}
{"smiles": "CCC(CC)C(=O)O[C@H]1C[C@@H](C)C=C2C=C[C@H](C)[C@H](CC[C@@H]3C[C@@H](O)C(CC)C(=O)O3)[C@H]21", "note": "(stereo partly drawn) [NST0078, (1S,3R,7S,8S,8aR)-8-(2-((2R,4R)-5-ethyl-4-hydroxy-6-oxo-tetrahydro-2H-pyran-2-yl)ethyl)-3,7-dimethyl-1,2,3,7,8,8a-hexahydronaphthalen-1-yl 2-ethylbutanoate]", "values": [{"measurement": "Percentage of animals without damage (hippocampus)", "setting": "[1]", "result": 60, "unit": "%"}, {"measurement": "AUC in the brain", "setting": "[2]", "result": 17, "unit": "µg·h/g"}, {"measurement": "Brain AUC and Cmax compared with simvastatin", "setting": "[2]", "result": "AUC and Cmax values surprisingly greater than those of simvastatin"}, {"measurement": "BACE enzymatic activity in the brain of zebra fish", "setting": "β-secretase (BACE) [3]", "result": "capable of reducing BACE enzymatic activity with respect to the control in a statistically significant manner"}, {"measurement": "Hypocholesterolemic effect (change in plasma total, LDL and HDL cholesterol)", "setting": "transgenic ApoB100 mice", "result": "did not show any hypocholesterolemic effect"}, {"measurement": "Degree of astrogliosis induced by kainate (score 0 to 3)", "setting": "reactive astroglia", "result": "protected against astrogliosis induced by kainate in all the studied regions"}, {"measurement": "BACE enzymatic activity in the brain of mice", "setting": "β-secretase (BACE) [4]", "result": "capable of reducing BACE enzymatic activity in a statistically significant manner"}, {"measurement": "HMGCR inhibition, times less than simvastatin", "setting": "[5]", "result": "about 1,900 times"}, {"measurement": "Plasma levels compared with simvastatin", "setting": "[6]", "result": "plasma levels considerably greater than simvastatin"}, {"measurement": "AUC", "setting": "[6]", "result": 17000, "unit": "ng·h/mL"}, {"measurement": "Levels of epilepsy (AUC of Racine scale over 120 min, with respect to Vehicle+KA group)", "setting": "FVB/NRj mice", "result": "greater reduction of the levels of epilepsy compared to simvastatin"}]}
{"smiles": "CCC(CC)C(=O)O[C@H]1C[C@@H](C)C=C2C=C[C@H](C)[C@H](CC[C@@H]3C[C@@H](O)C(C)C(=O)O3)[C@H]21", "note": "(stereo partly drawn) [NST0076, (1S,3R,7S,8S,8aR)-8-(2-((2R,4R)-4-hydroxy-5-methyl-6-oxo-tetrahydro-2H-pyran-2-yl)ethyl)-3,7-dimethyl-1,2,3,7,8,8a-hexahydro-naphthalen-1-yl 2-ethylbutanoate]", "values": [{"measurement": "Percentage of animals without damage (hippocampus)", "setting": "[1]", "result": 50, "unit": "%"}, {"measurement": "AUC in the brain", "setting": "[2]", "result": 37, "unit": "µg·h/g"}, {"measurement": "Brain AUC and Cmax compared with simvastatin", "setting": "[2]", "result": "AUC and Cmax values surprisingly greater than those of simvastatin"}, {"measurement": "Hypocholesterolemic effect (change in plasma total, LDL and HDL cholesterol)", "setting": "transgenic ApoB100 mice", "result": "did not show any hypocholesterolemic effect"}, {"measurement": "Degree of astrogliosis induced by kainate (score 0 to 3)", "setting": "reactive astroglia", "result": "protected against astrogliosis induced by kainate in all the studied regions"}, {"measurement": "BACE enzymatic activity in the brain of mice", "setting": "β-secretase (BACE) [4]", "result": "capable of reducing BACE enzymatic activity in a statistically significant manner"}, {"measurement": "HMGCR inhibition (in words)", "setting": "[5]", "result": "do not significantly inhibit the HMGCR enzyme"}, {"measurement": "HMGCR inhibition, times less than simvastatin", "setting": "[5]", "result": "about 28 times"}, {"measurement": "IC50", "setting": "[5]; 20 min, 37° C., read-out: IC50 (concentration at which 50% of the HMGCR enzymatic activity is inhibited)", "result": "603 ± 177", "unit": "nM"}, {"measurement": "Plasma levels compared with simvastatin", "setting": "[6]", "result": "plasma levels considerably greater than simvastatin"}, {"measurement": "AUC", "setting": "[6]", "result": 12000, "unit": "ng·h/mL"}, {"measurement": "Levels of epilepsy (AUC of Racine scale over 120 min, with respect to Vehicle+KA group)", "setting": "FVB/NRj mice", "result": "greater reduction of the levels of epilepsy compared to simvastatin"}]}
{"smiles": "C[C@H]1C=C2C=C[C@H](C)[C@H](CC[C@@H]3C[C@@H](O)CC(=O)O3)[C@H]2[C@@H](O)C1", "note": "[monacolin J, reference compound]", "values": [{"measurement": "HMGCR inhibition (in words)", "setting": "[5]", "result": "HMGCR inhibitory capacity much less than that of simvastatin"}]}
{"smiles": "CCC(C)(C)C(=O)O[C@H]1C[C@@H](C)C=C2C=C[C@H](C)[C@H](CC[C@@H]3C[C@@H](O)CC(=O)O3)[C@H]21", "note": "[simvastatin, reference compound]", "values": [{"measurement": "Percentage of animals without damage (hippocampus)", "setting": "[1]", "result": 25, "unit": "%"}]}
